Assay results reported in patent US8663647B2, “Epitope peptides derived from vascular endothelial growth factor receptor 1 and vaccines containing these peptides” (Oncotherapy Science, Inc., priority 2005, dated 2014).
“Also recorded” adds a separate entry of the source.

Columns and labels:
[1] = test system: angiogenesis induced by MC38 cells; experiment: Dorsal air sac (DAS) in vivo angiogenesis assay; set-up: species or system A2/Kb transgenic mice; details: vaccinated twice with IFA-conjugated peptide, MC38 chamber, semiquantitative
Description: We examined the effects of peptide vaccination using dorsal air sac (DAS) assay which was designed to measure in vivo angiogenesis induced by tumor cells as previously described (Oikawa et al., (1997) Anticancer Res. 17: 1881-6). In brief, the A2/Kb TGM were vaccinated twice with 1-week interval in the left flank using IFA conjugated corresponding peptides as previously described with some modification (Schuler et al., (1997) J. Exp. Med. 186: 1183-7, Song et al., (1997) J. Exp. Med. 186: 1247-56, Specht et al., (1997) J. Exp. Med. 186: 1213-21). Millipore chamber (Millipore Corporation, Bedford, Mass.) was filled with PBS containing MC38 cells (1×10^6 cells) and implanted in the dorsum of anesthetized mice on day 0. The implanted chambers were removed from s.c. fascia on day 6 and then black rings were placed at the sites exposed to a direct contact with the chamber. The angiogenic response was assessed with photographs taken using a dissecting microscope. The extent of angiogenesis was determined with the number of newly formed blood vessels of >3 mm in length and scored semi quantitatively using an index ranging from 0 (none) to 5 (many).

[2] = test system: T2 cells and A24-LCL pulsed with candidate peptides; experiment: CTL induction with peptide-pulsed DCs and 4-h 51Cr-release cytotoxicity assay on peptide-pulsed target cells; assay type: cell-based; details: human PBMC-derived DCs pulsed with peptide, autologous CD8+ T cells
Description: Monocyte-derived dendritic cells (DCs) were used to induce CTL responses against peptides presented on HLA as previously described (Nukaya et al., (1999) Int. J. Cancer. 80: 92-7, Tsai et al., (1997) J. Immunol. 158: 1796-802, Nakahara et al., (2003) Cancer Res. 63: 4112-8). In brief, the PBMCs were obtained from the healthy volunteers with corresponding HLAs and cultured in the presence of GM-CSF (provided by Kirin Brewery Company, Japan) and IL-4 (Genzyme/Techne, Minneapolis). After culture for 5 days, OK-432 (Chugai Pharmaceutical Corporation, Japan) was added to the culture to obtain mature DCs (Nakahara et al., (2003) Cancer Res. 63: 4112-8). On day 7, generated mature DCs were pulsed with each peptide for T cell stimulation. Using these peptide-pulsed DCs each time, the autologous CD8+ T cells were stimulated for three times on day 0, 7 and 14, and then the resultant lymphoid cells were tested for their cytotoxic activities on day 21. To generate CTL clones, established CTL lines were plated in 96-well plates at 0.3, 1, and 3 cells per well with allogenic PBMCs and […] as stimulator cells. Cytotoxic activities of resulting CTL clones were tested on the 14th day. Cytotoxic activities were measured using a standard 4-h ^51Cr-release assay. The T2 cells and A24-LCL were used as target cells pulsed with candidate peptides. Percent specific lysis was calculated as follows: % Specific lysis=[(experimental release−spontaneous release)/(maximum release−spontaneous release)]×100. Immunogenicity of Epitope Peptides in A2/Kb TGM

[3] = test system: IFN-γ production of CTLs against T2 cells pulsed with peptides; experiment: IFN-γ ELISPOT assay, immunogenicity of epitope peptides in A2/Kb TGM; assay type: in vivo, A2/Kb transgenic mice; details: IFA-conjugated peptide injected day 0 and day 11; splenocytes day 21; E/T ratio x20
Method: For priming the peptide-specific CTLs, immunization was given using 200 μl of vaccine mixture, which contains 100 μg of an HLA-A2 restricted peptide and 100 μl of IFA per mouse. The vaccine was injected intradermally in the right flank for the first immunization on day 0 and in the other flank for the second on day 11. On day 21, splenocytes of the vaccinated mice were used as the responder cells, and T2 cells pulsed with or without peptides were used as the stimulator cells for ELISPOT assay.
At first, we evaluated the immunogenicity of the epitope peptides for A2/Kb TGM to examine the specific production of IFN-γ of the CTLs induced with these peptides by ELISPOT assay (FIG. 4). IFA-conjugated peptide was injected s.c. into A2/Kb TGM on day 0 and day 11. On day 21, splenocytes of the vaccinated mice were harvested and used as the responder cells, and T2 cells pulsed with or without peptides were used as the stimulator cells for ELISPOT assay. […] In this ELISPOT assay using A2/Kb TGM system, positive results were shown for the epitope peptides identified using human PBMCs.

MCA205 cells = experiment: In vivo anti-tumor effects, therapeutic model; set-up: species or system A2/Kb transgenic mice; details: MCA205 i.d. day 0; vaccination with IFA-conjugated peptide after tumor challenge
Method: We examined the anti-tumor effects of this vaccination with a therapeutic model. The 1×10^5 MCA205 cells or the 5×10^5 B16 cells were injected i.d. in the right flank on day 0, and vaccination was performed on day 4 and day 14 using IFA conjugated corresponding peptides. […] The MCA205, a methylcholanthrene-induced murine fibrosarcoma cell line were injected i.d. into A2/Kb TGM on day 0, and vaccination was performed on these mice on 4 and 14 days after the tumor challenge using VEGFR1-1087, -770, -417 peptides conjugated with IFA (FIG. 6).

Sequence	Inhibition of tumor-induced angiogenesis (newly formed vessels) ([1]; listed as VEGFR1-417)	CTL inducibility [2]	Specific production of IFN-γ for the corresponding peptide [3]	Suppression of tumor growth (MCA205 cells)	Inhibition of tumor-induced angiogenesis (newly formed vessels) ([1]; listed as VEGFR1-770)	Inhibition of tumor-induced angiogenesis (newly formed vessels) ([1]; listed as VEGFR1-1087)
NLTATLIVNV (synthetic vascular endothelial growth factor receptor 1 (VEGFR1, Flt-1) epitope peptide binding HLA-A*0201 with high cytotoxic T lymphocyte (CTL) inducibility) [SEQ ID NO: 13]	significant inhibition on angiogenesis was observed; also recorded: Significant inhibition of tumor-induced angiogenesis was observed	particularly high CTL inducibility	Specific production of IFN-γ for the corresponding peptide was observed			
SYGVLLWEIF (synthetic vascular endothelial growth factor receptor 1 (VEGFR1, Flt-1) epitope peptide binding HLA-A*2402 with high cytotoxic T lymphocyte (CTL) inducibility) [SEQ ID NO: 32]		particularly high CTL inducibility				
TLFWLLLTL (synthetic vascular endothelial growth factor receptor 1 (VEGFR1, Flt-1) epitope peptide binding HLA-A*0201 with high cytotoxic T lymphocyte (CTL) inducibility) [SEQ ID NO: 2]		particularly high CTL inducibility	Specific production of IFN-γ for the corresponding peptide was observed	Significant suppression of tumor growth was observed	significant inhibition on angiogenesis was observed; also recorded: Significant inhibition of tumor-induced angiogenesis was observed	
VLLWEIFSL (synthetic vascular endothelial growth factor receptor 1 (VEGFR1, Flt-1) epitope peptide binding HLA-A*0201 with high cytotoxic T lymphocyte (CTL) inducibility) [SEQ ID NO: 1]		particularly high CTL inducibility	Specific production of IFN-γ for the corresponding peptide was observed	Significant suppression of tumor growth was observed		significant inhibition on angiogenesis was observed; also recorded: Significant inhibition of tumor-induced angiogenesis was observed
